According to patent US5086054A, “Novel arylcycloalkanepolyalkylamines” (SRI International, priority 1990, dated 1992):
Entries after “also recorded” stand apart in the source; their conditions may differ. Like-named read-outs stand apart in the source and are kept apart here.

How the values were obtained:
PCP RECEPTOR = assay: PCP receptor binding assay ([3H]-TCP displacement, brain membranes); design: species or system guinea-pig (male Hartley); details: for IC50: read-out: PCP RECEPTOR IC50
Description: (§1) This example illustrates testing of compounds in receptor binding assays.
(§2) Frozen brains from male Hartley guinea-pigs were obtained from Pel-Freeze (Rogers, Arkansas).
(§3) The brains plus cerebella were homogenized in 10 volumes (v/w) of 0.1M, pH 7.4, ice-cold Tris-HCl buffer with a Brinkmann polytron at setting 4 for 20 seconds. The homogenates were centrifuged at 20,000×g for 20 minutes at 4° C. The pellets were suspended in 10 volumes of ice-cold water and, after sitting on ice for 10 minutes, were centrifuged 30 minutes at 20,000×g at 4° C. The resulting pellets were resuspended in the above Tris buffer in ratio 1:100 (w/v) for σ receptor assays or in 5 mM Tris-HCl having pH 7.4, for PCP receptor assays. The final suspension was homogenized with a dounce glass-glass tissue grinder Wheaton "200", at small clearance (B), with three strokes before use. Two milliter aliquots of the brain membrane preparation, containing 1.7 mg of protein, were incubated in quadruplicate for one hour at 23° C. with competing mixture of ligand and radioligand. For σ receptors, [^3 H]-d-SKF-10,047, 2 nM was used. For PCP receptors, [^3 H] TCP [^3 H]-1-[1-(2-thienyl)cyclohexyl]piperidine), 1 nM was used. The nonspecific bindings were defined by 0.1 mM d-SKF-10,047 and 0.1 mM phencyclidine respectively for σ and PCP receptors. After incubation, free ligand was separated from bound ligand by rapid filtration through Whatman GF/C filters. The filters had been soaked before use in isoamyl alcohol-saturated water to prevent nonspecific [^3 H]-d-SKF-10,047 binding to the filter. In the PCP receptor assay, the filter was soaked in 0.5% polyethylenimine to reduce the filter binding of [^3 H]-TCP. After filtration, the trapped tissue was washed three times with 4 ml aliquots of 0.1 M ice-cold Tris buffer at pH 7.4 for σ receptors and 5 mM, ice-cold Tris buffer pH 7.4 for PCP receptors. The filters were transferred to 5 ml of liquid scintillation fluid and the retained radioactivity was measured by liquid scintillation spectrometry.
Programs in Biomed. 17:107 (1983)].

SIGMA RECEPTOR = target: T1, SIGMA RECEPTOR (Cavia porcellus, UniProt Q60492); assay: Sigma receptor binding assay ([3H]-d-SKF-10,047 displacement, brain membranes); design: species or system guinea-pig (male Hartley)
T1 construct: Two milliter aliquots of the brain membrane preparation, containing 1.7 mg of protein; tissue Pel-Freeze (Rogers, Arkansas); host or cells: guinea-pig brains plus cerebella, membranes
Description: as §1, §2, §3

[1] = Table 2, aryl ring substituents
[2] = Table 1, slope of dose response curve
[3] = Table 1, mean ± error (n), read-out: SIGMA RECEPTOR IC50
[4] = SIGMA RECEPTOR IC50, Table 1, mean ± error (n)
[5] = Table 2, aryl ring substituents, read-out: SIGMA RECEPTOR IC50

T1 sequence (Q60492 whole entry): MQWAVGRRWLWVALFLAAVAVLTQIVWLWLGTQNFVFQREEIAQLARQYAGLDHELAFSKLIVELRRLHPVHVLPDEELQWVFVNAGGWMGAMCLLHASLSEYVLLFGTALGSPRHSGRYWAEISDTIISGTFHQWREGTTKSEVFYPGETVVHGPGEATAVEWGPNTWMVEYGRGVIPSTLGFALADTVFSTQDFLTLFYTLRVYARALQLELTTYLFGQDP

Structure (SMILES)	potency at PCP receptors (in words) (PCP RECEPTOR)	IC50 (PCP RECEPTOR; Table 1, mean ± error (n)) [µM]	IC50 (PCP RECEPTOR; [1]) [µM]	potency at σ receptors (in words) (SIGMA RECEPTOR)	SIGMA RECEPTOR SLOPE (SIGMA RECEPTOR; [2])	SIGMA RECEPTOR SLOPE (SIGMA RECEPTOR; Table 2)	IC50 (SIGMA RECEPTOR; [3]) [µM]	IC50 (SIGMA RECEPTOR; [5]) [µM]	also measured
c1ccc(C2(CN3CCCCC3)CCCCC2)cc1 [Compound 2]	reduced the potency in the PCP receptor assay	1.83	1.83	increased the potency of the compound in the σ receptor assay	0.66 ± 0.1	0.66 ± 0.1			IC50 (PCP RECEPTOR; Table 3, cycloalkyl ring size): 1.83 µM; decreased potency for PCP receptors (PCP RECEPTOR; relative to PCP (1)): approximately 40 times; SIGMA RECEPTOR SLOPE (SIGMA RECEPTOR; Table 3): 0.66 ± 0.01; IC50 (SIGMA RECEPTOR; Table 3, cycloalkyl ring size, read-out: SIGMA RECEPTOR IC50): 0.104 µM; increased potency for σ receptors (SIGMA RECEPTOR; relative to PCP (1)): about 80 times
C[N+]1(CCOC(=O)C2(c3ccccc3)CCCCC2)CCCCC1 [Compound 4]	reduced the potency in the PCP receptor assay; also recorded: drastically reduced potency for both σ and PCP receptors; also recorded: inactive in the PCP assay; also recorded: did not increase potency for PCP receptors	> 25					> 25		
c1ccc(C2(N3CCCC3)CCCCC2)cc1 [Compound 5, 1-(1-phenylcyclohexyl)pyrrolidine, reference compound]		0.11 ± 0.006			0.83 ± 0.06				IC50 (SIGMA RECEPTOR; [4]): 7.73 µM
c1ccc(C2(CN3CCCC3)CCCCC2)cc1 [Compound 6]	already inactive at PCP receptors	1.27		increased potency for σ receptors	0.88 ± 0.07	0.88 ± 0.07	4.74	4.75	
c1ccc(C2(CCN3CCCC3)CCCCC2)cc1 [Compound 7]	decreased the potency in the PCP receptor assay	1.72			1.22 ± 0.03		0.141		increased potency for σ receptors (SIGMA RECEPTOR; relative to PCPY (5)): approximately 30 fold
C[N+]1(CCOC(=O)C2(c3ccccc3)CCCCC2)CCCC1 [Compound 9]	inactive in the PCP assay; also recorded: did not increase potency for PCP receptors	> 25		σ receptor potency increased; also recorded: effectively reversed the potency for σ receptors	0.62 ± 0.18		0.242		
c1ccc(C2(N3CCOCC3)CCCCC2)cc1 [Compound 10, 4-(1-phenylcyclohexyl)morpholine, reference compound]		0.633 ± 0.071			0.47 ± 0.02				IC50 (SIGMA RECEPTOR; [4]): 2.53 µM
c1ccc(C2(CN3CCOCC3)CCCCC2)cc1 [Compound 11]	inactive in the PCP receptor assay	> 25	> 25	increased potency for σ receptors	0.60 ± 0.03	0.60 ± 0.03	0.71		
CCN(CC)C1(c2ccccc2)CCCCC1 [Compound 13, N,N-diethyl-1-phenylcyclohexylamine, reference compound]		0.331 ± 0.034			0.40 ± 0.07				IC50 (SIGMA RECEPTOR; [4]): 0.573 µM
CCN(CC)CC1(c2ccccc2)CCCCC1 [Compound 14]	inactive in the PCP receptor assay	> 25	> 25	increased potency for σ receptors	0.66 ± 0.17	0.66 ± 0.17	0.208		
CC[N+](C)(CC)CCOC(=O)C1(c2ccccc2)CCCCC1 [Compound 16]	inactive in the PCP assay; also recorded: did not increase potency for PCP receptors	> 25		σ receptor potency increased; also recorded: effectively reversed the potency for σ receptors	0.86 ± 0.07		2.23		
CN(C)C1(c2ccccc2)CCCCC1 [Compound 17, N,N-dimethyl-1-phenylcyclohexylamine, reference compound]		0.242 ± 0.008			0.53 ± 0.05				IC50 (SIGMA RECEPTOR; [4]): 1.95 µM
CN(C)CC1(c2ccccc2)CCCCC1 [Compound 18]	inactive in the PCP receptor assay	> 25	> 25	increased potency for σ receptors	0.85 ± 0.07	0.85 ± 0.07	4.13	4.13	
C[N+](C)(C)CCOC(=O)C1(c2ccccc2)CCCCC1 [Compound 20]	inactive in the PCP assay; also recorded: did not increase potency for PCP receptors	> 25			1.22 ± 0.15		12.3		
Oc1cccc(C2(CN3CCCCC3)CCCCC2)c1 [Compound 21]			> 25	diminished binding to σ receptors				> 25	
Cc1ccc(C2(CN3CCCCC3)CCCCC2)cc1 [Compound 23]			> 25	slightly lower σ receptor potencies		0.69 ± 0.01		0.223	selectivity for σ receptors (in words) (SIGMA RECEPTOR): substantially increases selectivity for σ receptors
O=[N+]([O-])c1ccc(C2(CN3CCCCC3)CCCCC2)cc1 [Compound 24]			> 25	slightly lower σ receptor potencies		0.47 ± 0.06		0.249	selectivity for σ receptors (in words) (SIGMA RECEPTOR): substantially increases selectivity for σ receptors
Clc1cccc(C2(CN3CCCCC3)CCCCC2)c1 [Compound 25]	showed some potency at PCP receptors		1.83	most potent at σ receptors		0.69 ± 0.05			selectivity for σ receptors (in words) (SIGMA RECEPTOR): least specific; IC50 (SIGMA RECEPTOR; read-out: IC50 at σ receptors): 0.071 µM
COc1cccc(C2(CN3CCCCC3)CCCCC2)c1 [Compound 26]			> 25	slightly lower σ receptor potencies		0.74 ± 0.07		0.326	selectivity for σ receptors (in words) (SIGMA RECEPTOR): substantially increases selectivity for σ receptors
COc1ccc(C2(CN3CCCCC3)CCCCC2)cc1 [Compound 27]			> 25	slightly lower σ receptor potencies		0.69 ± 0.04		0.221	selectivity for σ receptors (in words) (SIGMA RECEPTOR): substantially increases selectivity for σ receptors
COc1ccc(C2(CN3CCCCC3)CCCCC2)cc1OC [Compound 28]			> 25	slightly lower σ receptor potencies; also recorded: poor to reasonable potency at σ sites		0.56 ± 0.03		0.387 ± 0.018	selectivity for σ receptors (in words) (SIGMA RECEPTOR): substantially increases selectivity for σ receptors; also recorded: high selectivity for σ receptors
